Peptide text beside a SMILES is read from it. * marks the point of attachment. βGlc = OC[C@H]1O[C@@H](*)[C@H](O)[C@@H](O)[C@@H]1O
Legend:
male Sprague Dawley rats = experiment: Neurobehavioral evaluations after a single subcutaneous dose in male Sprague Dawley rats; format: in vivo, rat; conditions: single s.c. dose 1, 5 or 40 mg/kg, n = 8 per group
Method: To evaluate the effects of PNA5 when administered subcutaneously on the central nervous system’s autonomic, neuromuscular, sensorimotor, and behavioral domains, neurobehavioral evaluations were performed in male Sprague Dawley rats treated with PNA5 at 0, 1, 5, or 40 mg/kg (n = 8 males per group). The neurobehavioral evaluations consisted of assessments of the central nervous system for activity, excitability, autonomic function, neuromuscular function, sensorimotor responses, and physiological function.

[1] = Toxicokinetics of PNA5 in Sprague Dawley rat plasma; conditions: for AUC(0-t) / Cmax / half-life / Tmax: both, Sprague Dawley, rat, sc; for AUC(0-t) / Cmax / half-life / Tmax / Kel: plasma; for AUC(0-t): AUC0–2, rats, n = 6, linear trapezoidal; for AUC(0-t) / Cmax / half-life / Kel: mean ± SD; for Cmax: Sprague Dawley rats, n = 6, UHPLC-MS/MS, noncompartmental; for half-life: n = 6, Ln(2)/Kel; for AUC0–2hr averaged accumulation ratio: day 1 to day 28, sexes combined; for F:M AUC0–2hr ratio: printed as on day 1; for fold increase in AUC0–2hr for a 40-fold increase in dose / fold increase in Cmax for a 40-fold increase in dose: 1 to 40 mg/kg/day; for Kel: n = 6, exponential regression
Method: Toxicokinetic (TK) of PNA5 was obtained from plasma following a single and repeated subcutaneous injection administration of PNA5 once daily for 28 days. Blood samples were collected on days 1 and 28 at the following time points: pre-dose and at approximately 5, 15, 30, 60, and 120 min post-dose (equivalent to 0.083, 0.25, 0.5, 1, and 2 h).
For the rat study, a total of 6 rats for each sex were assigned randomly to treatment groups 2–4 (those treated with PNA5). Three rats per sex were assigned to group 1 (vehicle control). Rats were sampled in satellite groups; rats' blood was taken at alternating time points, resulting in a total n = 3 per time point for six animals. For the dog study, three animals per sex were assigned to group 2 and group 3, and five animals per sex were assigned to group 1 and group 4. Blood was collected from canines via venipuncture.
Blood was collected in heparinized tubes containing a protease inhibitor cocktail consisting of 4 mM 0-phenanthroline, 1.2 mM pepstatin A, and 0.5 M EDTA. Blood samples were centrifuged for 15 min at 2500 x g at room temperature. Plasma was transferred into pre-cooled, pre-labeled collection tubes, frozen immediately in liquid nitrogen/dry ice, and stored at −80 °C until analysis.
PNA5 levels were analyzed using ultra-high performance liquid chromatography (UHPLC) with tandem mass spectrometric (MS/MS) detection. Precision and accuracy, reproducibility, selectivity, carryover, recovery, matrix effects, dilution integrity, hemolysis, stock stability, and matrix stability were assessed prior to initiation of the validation. Samples (5 µL) were injected onto the column and separated using gradient elution. Target compounds were quantified by summing the height of previously identified fragment peaks in the LC-MS [3] spectra. The serum concentrations were estimated using a calibration curve, accounting for the dilution factors and the probe recoveries for each experiment. Standards were matrix-matched to samples and underwent the same sample preparation steps.
A noncompartmental analysis was used for parameter estimation. For PNA5 in plasma, the extravascular model was used for parameter estimation. For the rat study, all parameters were generated from PNA5 individual concentrations in plasma from days 1 and 28. Parameters were estimated using nominal dose levels and nominal sampling times relative to the dose administration. Plasma concentration values obtained at the pre-dose time point were used as the concentration at time 0 on days 1 and 28. For the dog study, all parameters were generated from PNA5 individual concentrations in plasma from days 1 and 28. Parameters were estimated using nominal dose levels and nominal sampling times relative to dose administration. Plasma concentration values obtained at the pre-dose time point were used as the concentration at time 0 on days 1 and 28. For Beagle dogs, concentration values reported as below the limit of quantitation (< 5 ng/mL) were assigned a value of 0.
The toxicokinetic parameters evaluated included the area under the curve of the plasma PNA5 concentration against time from time 0 (pre-dose) to 2 h (post-dose) (AUC0–2hr), the maximum plasma concentration (Cmax), time to maximum plasma concentration (Tmax), elimination rate (Kel), and the half-life. The area under the concentration vs. time curve was calculated using the linear trapezoidal method with linear interpolation for all profiles with at least three consecutive quantifiable concentrations. Kel was calculated from the slope using exponential regression of concentration versus time (Excel); exponential interpolations for all profiles include at least three concentrations plotted against time. Time 0 values and all concentrations listed as zero were excluded from Kel calculations. The half-life was calculated from Kel via the following equation: half-life Ln(2)/Kel.

Beagle dogs = experiment: 28-day repeat-dose subcutaneous toxicology study (main and recovery) in Beagle dogs
Sprague Dawley rats = experiment: 28-day repeat-dose subcutaneous toxicology study (main and recovery) in Sprague Dawley rats; format: in vivo, rat
Method: Rats used in studies were inspected upon receipt for good health and were acclimated for 7 days at a minimum. Male and female rats were randomly selected for one of the four treatment groups upon receipt. Group 1 rats received vehicle control (0.9 % sodium chloride (saline) for injection, USP) subcutaneously for 28 days. Rats in groups 2–4 received PNA5 at 1, 5, or 40 mg/kg/day subcutaneously for 28 days (Table 1). Rats for all studies were dosed once daily for 28 consecutive days via subcutaneous bolus injection. The first day of dosing was based on day 1 body weights. Toxicokinetic study animals were dosed in the same fashion as for the main and recovery study animals.
Rats are observed at least twice daily (morning and afternoon) beginning upon arrival through termination/release for mortality. For the toxicology main study, 10 rats per sex were randomly assigned to groups 1–4. 5 rats per sex were assigned to groups 1 (control) and group 4 (PNA5 at 40 mg/kg/day) for the toxicology recovery study. The number of animals used for the toxicokinetic groups was calculated to meet a sufficient number of animals to provide samples for toxicokinetic analysis while minimizing the number of blood collections per animal.
After 28 treatments, animals that were a part of the main and toxicokinetic study were scheduled for euthanasia on day 29, during which the necropsy measures were collected for the main study animals. Rats that were a part of the recovery animal study started the recovery period on day 29 and were scheduled for euthanasia on day 57, during which the same necropsy measures were collected. Animals were euthanized for humane reasons or at study termination via carbon dioxide inhalation followed by exsanguination via the vena cava for necropsy. Main Study and Recovery animals were fasted overnight prior to the scheduled necropsy. Following the final blood collection, animals in the toxicokinetic studies were euthanized by inhalation of carbon dioxide but were not exsanguinated for necropsy.
The following parameters and end points were evaluated in this study: mortality, clinical observations, body weights, body weight gains, food consumption, ophthalmology, clinical pathology parameters (hematology, coagulation, clinical chemistry, and urinalysis), toxicokinetic parameters, organ weights, and macroscopic and microscopic examinations.
Animals were observed daily. On days with dosing, observations were made 10–30 min postdosing. During the dosing, observations included but were not limited to the following: Changes in skin on the whole animal and at the injection site, fur, eyes, mucous membrane, and respiratory functions.
A detailed clinical observation was performed 1 week prior to randomization, on the date of randomization, and then weekly during the study period, with the last observation on the day of the scheduled necropsy.
The injection site was shaved and marked for identification and evaluation during the study. The injection site was collected at necropsy.
Rats were weighed within 4 days of receipt, on the day of randomization, daily during the study, and on the day of the scheduled necropsies. Dogs were weighed one week prior to randomization (± 2 days), on the day of randomization, on Day 1 (prior to dosing), weekly (± 2 days) during the study period, on the day prior to the scheduled necropsies, and on the day of the scheduled necropsy.
Rats' food consumption was measured quantitatively once weekly beginning on Day 1 and persisting throughout the study. Dogs' food consumption was measured daily beginning on Day 1 and persisting throughout the study.
Ophthalmic examinations were conducted by a board-certified veterinary ophthalmologist using an indirect ophthalmoscope and slit lamp biomicroscope. Prior to examination, animals will be treated with a mydriatic agent. […]

[2] = dogs, 1, 5, 20 mg/kg/day s.c. for 28 days
[3] = dogs, main study, day 29 necropsy
[4] = rats, 1, 5, 40 mg/kg/day s.c. for 28 days
[5] = rats, main study, day 29 necropsy
[6] = rats, recovery study, 40 mg/kg/day vs control

CC[C@H](C)[C@H](NC(=O)[C@H](Cc1ccc(O)cc1)NC(=O)[C@@H](NC(=O)[C@H](CCCNC(=N)N)NC(=O)[C@@H](N)CC(=O)O)C(C)C)C(=O)N[C@@H](Cc1c[nH]cn1)C(=O)N[C@@H](CO[C@@H]1O[C@H](CO)[C@@H](O)[C@H](O)[C@H]1O)C(N)=O [PNA5, Ang-1–6-Ser-O-Glu-NH2] (H-DRVYIHS(βGlc)-NH2)
neurobehavioral assessments of the central nervous system (activity, excitability, autonomic, neuromuscular, sensorimotor, physiological function) (male Sprague Dawley rats): nor were there observed PNA5-related effects
AUC(0-t) ([1]; 1 mg/kg/day, s.c. 1 mg/kg/day, day 1, sexes combined): 0.263 ± 0.0315 ng·h/mL
AUC(0-t) ([1]; 1 mg/kg/day, s.c. 1 mg/kg/day, day 28, sexes combined): 0.464 ± 0.0741 ng·h/mL
Cmax ([1]; 1 mg/kg/day, s.c. once daily 1 mg/kg/day, day 1, sexes combined): 0.591 ± 0.25 ng/mL
Cmax ([1]; 1 mg/kg/day, s.c. once daily 1 mg/kg/day, day 28, sexes combined): 0.968 ± 0.28 ng/mL
half-life ([1]; 1 mg/kg/day, rats, s.c. 1 mg/kg/day, day 1, sexes combined): 36 ± 6 min
half-life ([1]; 1 mg/kg/day, rats, s.c. 1 mg/kg/day, day 28, sexes combined): 30.6 ± 9 min
Tmax ([1]; 1 mg/kg/day, rats, s.c. 1 mg/kg/day, day 1, sexes combined, average (range lowest to highest)): 6.6 min
Tmax ([1]; 1 mg/kg/day, rats, s.c. 1 mg/kg/day, day 28, sexes combined, average (range lowest to highest)): 10.2 min
AUC(0-t) ([1]; 5 mg/kg/day, s.c. 5 mg/kg/day, day 1, sexes combined): 1.55 ± 0.789 ng·h/mL
AUC(0-t) ([1]; 5 mg/kg/day, s.c. 5 mg/kg/day, day 28, sexes combined): 2.86 ± 1.72 ng·h/mL
Cmax ([1]; 5 mg/kg/day, s.c. once daily 5 mg/kg/day, day 1, sexes combined): 3.37 ± 1.99 ng/mL
Cmax ([1]; 5 mg/kg/day, s.c. once daily 5 mg/kg/day, day 28, sexes combined): 5.35 ± 2.77 ng/mL
half-life ([1]; 5 mg/kg/day, rats, s.c. 5 mg/kg/day, day 1, sexes combined): 25.2 ± 7.8 min
half-life ([1]; 5 mg/kg/day, rats, s.c. 5 mg/kg/day, day 28, sexes combined): 22.2 ± 7.8 min
Tmax ([1]; 5 mg/kg/day, rats, s.c. 5 mg/kg/day, day 1, sexes combined, average): 4.98 min
Tmax ([1]; 5 mg/kg/day, rats, s.c. 5 mg/kg/day, day 28, sexes combined, average (range lowest to highest)): 11.4 min
AUC(0-t) ([1]; 40 mg/kg/day, s.c. 40 mg/kg/day, day 1, sexes combined): 16.1 ng·h/mL
AUC(0-t) ([1]; 40 mg/kg/day, s.c. 40 mg/kg/day, day 28, sexes combined): 29.6 ng·h/mL
Cmax ([1]; 40 mg/kg/day, s.c. once daily 40 mg/kg/day, day 1, sexes combined): 40.8 ng/mL
Cmax ([1]; 40 mg/kg/day, s.c. once daily 40 mg/kg/day, day 28, sexes combined): 62.5 ng/mL
half-life ([1]; 40 mg/kg/day, rats, s.c. 40 mg/kg/day, day 1, sexes combined): 19.8 ± 4.8 min
half-life ([1]; 40 mg/kg/day, rats, s.c. 40 mg/kg/day, day 28, sexes combined): 23.4 ± 3.6 min
Tmax ([1]; 40 mg/kg/day, rats, s.c. 40 mg/kg/day, day 1, sexes combined, average (range lowest to highest)): 8.4 min
Tmax ([1]; 40 mg/kg/day, rats, s.c. 40 mg/kg/day, day 28, sexes combined, average (range lowest to highest)): 10.2 min
AUC0–2hr averaged accumulation ratio ([1]; rats, 1 mg/kg/day): 1.76
F:M AUC0–2hr ratio ([1]; rats, 5 mg/kg/day): 0.66–1.58
AUC0–2hr averaged accumulation ratio ([1]; rats, 40 mg/kg/day): 1.84
F:M AUC0–2hr ratio ([1]; rats, 40 mg/kg/day): 1.16–1.32
fold increase in AUC0–2hr for a 40-fold increase in dose ([1]; rats, day 1, sexes combined): ~61.22 fold
fold increase in Cmax for a 40-fold increase in dose ([1]; rats, day 1, sexes combined): ~69.09 fold
fold increase in AUC0–2hr for a 40-fold increase in dose ([1]; rats, day 28, sexes combined): ~63.93 fold
fold increase in Cmax for a 40-fold increase in dose ([1]; rats, day 28, sexes combined): ~64.56 fold
F:M Cmax ratios ([1]; rats, day 28, range across doses): 1.24 – 1.37
Kel ([1]; rats, s.c. 1 mg/kg/day, day 1, sexes combined): 1.18 ± 0.18, 6 hr–1
Kel ([1]; rats, s.c. 5 mg/kg/day, day 1, sexes combined): 1.79 ± 0.67, 6 hr–1
Kel ([1]; rats, s.c. 5 mg/kg/day, day 28, sexes combined): 2.08 ± 0.86, 6 hr–1
Kel ([1]; rats, s.c. 40 mg/kg/day, day 1, sexes combined): 2.24 ± 0.83, 6 hr–1
Kel ([1]; rats, s.c. 40 mg/kg/day, day 28, sexes combined): 1.82 ± 0.28, 6 hr–1
time post-dose up to which PNA5 plasma concentrations were quantifiable ([1]; rats, s.c. 1, 5 or 40 mg/kg/day, day 1 and day 28, last sampling time 2 h): up to 2 h
tolerability (mortality, adverse findings) (Beagle dogs; Beagle dogs, main and recovery studies, s.c. bolus once daily 28 days, 1, 5, 20 mg/kg/day): well tolerated at all doses with no effects on mortality or adverse findings
no-observed-adverse-effect-level (NOAEL) (Beagle dogs; Beagle dogs, s.c. once daily for 28 days): 20 mg/kg/day
body weights and body weight gains (Beagle dogs; [2]): unaffected
clinical observations (Beagle dogs; [2]): no test article-related clinical observations
electrocardiography (Beagle dogs; [2]): no test article-related clinical observations or effects
food consumption (Beagle dogs; [2]): unaffected
organ weights (Beagle dogs; [2]): no test article-related clinical observations or effects
survival (Beagle dogs; dogs, 1, 5 and 20 mg/kg/day s.c. for 28 days): All animals survived until the scheduled euthanasia
ophthalmic examinations (Beagle dogs; dogs, all test article-treated groups): No ophthalmic lesions indicative of toxicity were observed
hematology, coagulation, clinical chemistry and urinalysis parameters (Beagle dogs; dogs, main study): unaffected
macroscopic findings (Beagle dogs; [3]): No test article-related macroscopic findings were noted
microscopic findings (Beagle dogs; [3]): No test article-related microscopic findings were noted
macroscopic findings (Beagle dogs; dogs, recovery study, day 43): No test article-related macroscopic findings were noted
microscopic findings (Beagle dogs; dogs, recovery study, day 43): No test article-related microscopic findings were noted
organ weights (Beagle dogs; dogs, recovery study, day 43): no test article-related organ weight changes
subcutaneous injection sites with dark red subcutaneous foci (Beagle dogs; dogs, treated group animals, main study, lacked a dose response, considered an effect of subcutaneous injection): 5 of 96
tolerability (mortality, adverse findings) (Sprague Dawley rats; Sprague-Dawley rats, main and recovery studies, s.c. bolus once daily 28 days, 1, 5, 40 mg/kg/day): well tolerated at all doses with no effects on mortality or adverse findings
mixed cell infiltration at the subcutaneous dorsoscapular injection site (Sprague Dawley rats; rats, 40 mg/kg/day group females, main study, considered within the expected response to the injection procedure): increase in incidence and severity of mixed cell infiltration
prostate/seminal vesicle weight normalized to body weight or brain weight vs control (Sprague Dawley rats; rats, 40 mg/kg/day group males, recovery study, considered incidental, absolute weights not different): significantly higher
body weights and body weight gains (Sprague Dawley rats; [4]): unaffected
food consumption (Sprague Dawley rats; [4]): unaffected
clinical observations (Sprague Dawley rats; rats, 1, 5, 40 mg/kg/day subq for 28 days, main and recovery study): no test article-related clinical observations
survival (Sprague Dawley rats; rats, 1, 5 and 40 mg/kg/day s.c. for 28 days): All animals survived until the scheduled euthanasia
ophthalmic examinations (Sprague Dawley rats; rats, all test article-treated groups): No ophthalmic lesions indicative of toxicity were observed
hematology, coagulation, clinical chemistry and urinalysis parameters (Sprague Dawley rats; rats, main study, all dose levels): unaffected
macroscopic findings (Sprague Dawley rats; [5]): no test article-related macroscopic findings
microscopic findings (Sprague Dawley rats; [5]): no test article-related microscopic findings
organ weights (Sprague Dawley rats; [5]): no test article-related organ weight changes
microscopic findings (Sprague Dawley rats; rats, recovery study): No test article-related microscopic findings were noted
macroscopic findings (Sprague Dawley rats; [6]): no test article-related macroscopic findings
organ weights (Sprague Dawley rats; [6]): no test article-related organ weight changes

Reference: PMC12612990, “PNA5, a glycosylated angiotensin-(1−7) mas receptor agonist for vascular dementia: A two species toxicology and toxicokinetic study” (Toxicology Reports, 2025)
